Measurements: patent US8673852B2, “Methods of treating neuronal disorders using MNTF peptides and analogs thereof” (Genervon Biopharmaceuticals, LLC, priority 2006, dated 2014)

Tests used:
embryonic stem cells = assay: Differentiation of embryonic stem cells into motor neurons in vitro; type: cell-based, murine
SH-SY5Y cells = assay: Cell culture model of Parkinson's disease: SH-SY5Y cell viability (MTT) with or without salsolinol; type: cell-based, human; details: for Viability (% Cells) Mean ± SD: Salsolinol 100 μM alone, 24 h, MTT
Procedure: SH-SY5Y cells were purchased from American Type Culture Collection (Manassas, Va.) and cultured in a complete media containing minimum essential media, Hams F-12 media and Hanks Balanced Salt Solution Gibco-BRL) in a ratio of 2:1:1. The media also contained 10% fetal bovine serum along with penicillin (50 U/ml) and streptomycin ([…]). The cells were cultured in flasks and kept in a humidified incubator containing 5% CO2 in air at 37° C. The media was changed every 2-3 days.
Prior to manipulation, cultures were assigned to different treatment groups based on a randomized block design.
For cell viability experiments, SH-SY5Y cells (0.5×10^5/well) were cultured in a 96-well cell culture plate and treated with (±) SAL (Sigma, St. Louis, Mo.) alone or along with different concentrations of (GM6) (Genervon), with or without Wortmannin (WRT) (Sigma, St. Louis, Mo.), a phosphatidylinositol-3-kinase (PI-3 kinase) inhibitor, for 24 h. Cell viability was determined by Thiazolyl blue (MTT) assay.

[1] = test system: stem cell derived motor neurons; assay: Survival of stem cell derived motor neurons; type: cell-based; details: compared with MNTF 33mer

Molecule: LGTFWGDTLNCWMLSAFSRYARCLAEGHDGPTQ (LGTFWGDTLNCWMLSAFSRYARCLAEGHDGPTQ) [33-mer]
- differentiation of ES cells into motor neurons (embryonic stem cells; in conjunction with a low concentration of RA): induced differentiation

Molecule: C[C@@H]1NCCc2cc(O)c(O)cc21 [Salsolinol, reference compound]
- Viability (% Cells) Mean ± SD (SH-SY5Y cells): 36.48 ± 12.78%
- Viability (% Cells) Mean ± SD (SH-SY5Y cells; listed as SAL): 36.5%
- decrease in the number of cells (SH-SY5Y cells; salsolinol 100 μM, 24 hour treatment): 63.7%

Molecule: MLSAFSRYAR [MNTF 10mer]
- concentrations at which at least as effective as the full-length MNTF 33mer at stimulating differentiation of embryonic stem cells into motor neurons (embryonic stem cells; in vitro): ≥ 0.01 µg/mL
- enhancing the survival of stem cell derived motor neurons [1]: nearly as effective as the MNTF 33mer
